Data taken from patent US20100113472A1, “COMPOUNDS FOR THE TREATMENT OF OSTEOPOROSIS AND CANCERS” (ChemoCentryx, Inc., priority 2008, published 2010).

Legend:
[1] = test system: Rabbit Model of Destructive Joint Inflammation; experiment: Rabbit model of destructive joint inflammation (rabbit LPS study); format: in vivo; conditions: oral, 2 h before and 4 h after intra-articular LPS (10 ng); lavage 16 h after LPS
Description: A rabbit LPS study was conducted essentially as described in Podolin, et al. J. Immunol. 169(11):6435-6444 (2002). Female New Zealand rabbits (approximately 2 kilograms) were treated intra-articularly in both knees with LPS (10 ng). The compound of interest, for example 1.016, (formulated in 1% methocel) or vehicle (1% methocel) was dosed orally at a 5 ml/kg dose volume at two times (2 hours before the intra-articular LPS injection and 4 hours after the intra-articular LPS injection). Sixteen hours after the LPS injection, knees were lavaged and cells counts were performed. Beneficial effects of treatment were determined by reduction in the number of inflammatory cells recruited to the inflamed synovial fluid of the knee joints.

[2] = test system: Rat Model of Collagen Induced Arthritis; experiment: Rat model of collagen induced arthritis; format: in vivo; conditions: female Lewis rats; 150 mg/kg oral, twice daily, day 9 to day 17
Description: A 17 day developing type II collagen arthritis study was conducted to evaluate the effects of a compound of interest on arthritis induced clinical ankle swelling. Rat collagen arthritis is an experimental model of polyarthritis that has been widely used for preclinical testing of numerous anti-arthritic agents (see Trentham, et al., J. Exp. Med. 146(3):857-868 (1977), Bendele, et al., Toxicologic Pathol. 27:134-142 (1999), Bendele, et al., Arthritis Rheum. 42:498-506 (1999)). The hallmarks of this model are reliable onset and progression of robust, easily measurable polyarticular inflammation, marked cartilage destruction in association with pannus formation and mild to moderate bone resorption and periosteal bone proliferation.
To measure the efficacy of CCR1 antagonists on the development of collagen induced arthritis in rats, compound 1.016 was evaluated in groups of 20 female Lewis rats. Animals were injected with 300 μl of Freund's Incomplete Adjuvant (Difco, Detroit, Mich.) containing 2 mg/ml bovine type II collagen (Elastin Products, Owensville, Mo.) at the base of the tail and 2 sites on the hack on days 0 and 6. Dosing by oral route (150 mg/kg; oral, twice daily) was initiated on day 9 of established disease (day 0 of arthritis) and continued through day 17 (day 7 of arthritis). On arthritis day 7, animals were euthanized for tissue collection. Hind paws were transected at the level of the medial and lateral malleolus, weighed and placed in formalin for microscopy. Osteoclasts were counted in 5, 400× magnification fields in ankle and knee of each joint and the mean number for the joint determined. Collagen arthritic ankles are also given scores of 0-5 (0 indicating normal and 5 indicating severe) for bone resorption according to established criteria.

[3] = pharmacokinetic tests conducted in animals; format: in vivo; conditions: compared with related compounds of U.S. Publication No. 2007/0010524A1
[4] = test system: human peripheral blood mononuclear cells (PBMC) differentiating into osteoclasts; experiment: Inhibition of formation of osteoclasts in vitro; format: cell-based; conditions: Osteoclast, 504 h, 100 nM, M-CSF and RANKL 50 ng/ml each, day 21, over the untreated control, read-out: inhibition of osteoclast formation (TRAP+ multinuclear cells)
Description: PBMC were prepared by layering human whole blood over a Ficoll ague plus (Amersham) gradient and centrifuging 45 minutes at 400 g. The interface of white cells is removed and washed twice with PBS, and placed in culture in RPMI with 10% FBS.
CCR1 is expressed on both osteoclast precursor cells and mature osteoclasts and modulates osteoclast formation and maturation. To evaluate the ability of the 1.016 compound to block osteoclast formation in vitro, human peripheral blood mononuclear cells (PBMC) were cultured in the presence of M-CSF (50 ng/ml) and RANKL (50 ng/ml), which induces the monocyte subpopulation to differentiate into giant multinucleated osteoclasts over 21 days. Compound 1.016 was added at a concentration of 100 nM to the culture media on day one and the compound/medium was changed twice weekly. On day 21, cells were fixed and stained for tartrate-resistant acid phosphatase (TRAP) (acid phosphatase leukocyte staining kit, Sigma, Mo.) and TRAP^+ multinuclear (3 or more nuclei) cells were quantified by light microscopy. Osteoclast formation in the presence of 1.016 was inhibited by ˜40% over the untreated control.

AUC [3]: increased
Cmax [3]: increased
oral bioavailability [3]: improved
Structure (SMILES): COc1cc(N2CCN(C(=O)Cn3nc(-c4ncc[nH]4)c4cccnc43)CC2)ccc1Cl [compound 1.016, 1-[4-(4-Chloro-3-methoxy-phenyl)-piperazin-1-yl]-2-[3-(1H-imidazol-2-yl)-pyrazolo[3,4-b]pyridin-1-yl]-ethanone]
recruited inflammatory cells in synovial fluid of the knee joints [1]: significant reduction
bone resorption (score 0-5) [2]: reduction in bone resorption
clinical changes associated with established type II collagen arthritis [2]: effectively inhibited
joint swelling assessed by caliper measurements [2]: reduction in joint swelling
osteoclasts in ankle and knee (histopathology) [2]: reduction of osteoclasts
inhibition at 0.1 µM [4]: ~40%
